Source: patent US11999759B2, “Boronic acid derivatives and therapeutic uses thereof” (Qpex Biopharma, Inc., priority 2016, dated 2024)

Assays:
CTX-M-14 = CTX-M-14 (Escherichia coli, UniProt Q9L5C7); experiment: Inhibition of nitrocefin cleavage by purified CTX-M-14; type: biochemical; settings: nitrocefin reporter substrate; 10 min preincubation at room temperature; read-out: Ki (CTX-M-14, NCF)
Experimental: (§1) Ki values of inhibition of purified class A, C and D enzymes were determined spectrophotometrically using nitrocefin as reporter substrate. Purified enzymes were mixed with various concentrations of inhibitors in reaction buffer and incubated for 10 min at room temperature. Nitrocefin was added and substrate cleavage profiles were recorded at 490 nm every 10 sec for 10 min.

KPC-2 = KPC-2 (Klebsiella pneumoniae, UniProt Q9F663); experiment: Inhibition of nitrocefin cleavage by purified KPC-2; type: biochemical; settings: nitrocefin reporter substrate; 10 min preincubation at room temperature; read-out: Ki (KPC-2, NCF)
Experimental: as §1, with “min. These experiments confirmed that the described compounds are inhibitors with a broad-spectrum of activity towards various β-lactamases.” for “min.”

P99 = P99 (Enterobacter cloacae, UniProt P05364); experiment: biochemical; settings: nitrocefin reporter substrate; 10 min preincubation at room temperature; read-out: Ki (P99, NCF)
Experimental: as §1

Pa-AmpC = Pa-AmpC (Pseudomonas aeruginosa, UniProt P24735); experiment: biochemical; settings: nitrocefin reporter substrate; 10 min preincubation at room temperature; read-out: Ki (Pa-AmpC, NCF)
Experimental: as §1

OXA-48 = OXA-48 (Klebsiella pneumoniae, UniProt Q6XEC0); experiment: Inhibition of nitrocefin cleavage by purified OXA-48; type: biochemical; settings: nitrocefin reporter substrate; 10 min preincubation at room temperature; read-out: Ki (OXA-48, NCF)
Experimental: as §1, with “min. These experiments confirmed that the described compounds are inhibitors with a broad-spectrum of activity towards various β-lactamases.” for “min.”

OXA-23 = OXA-23 (Acinetobacter baumannii, UniProt Q9L4P2); experiment: Inhibition of nitrocefin cleavage by purified OXA-23; type: biochemical; settings: nitrocefin reporter substrate; 10 min preincubation at room temperature; read-out: Ki (OXA-23, NCF)
Experimental: as §1, with “min. These experiments confirmed that the described compounds are inhibitors with a broad-spectrum of activity towards various β-lactamases.” for “min.”

VIM-1 = VIM-1 (Pseudomonas aeruginosa, UniProt A0A0F7KYQ8); experiment: Inhibition of nitrocefin cleavage by purified VIM-1; type: biochemical; settings: nitrocefin reporter substrate; 10 min preincubation at room temperature; read-out: Ki (VIM-1, NCF)
NDM-1 = NDM-1 (Klebsiella pneumoniae, UniProt C7C422); experiment: Inhibition of imipenem cleavage by purified NDM-1; type: biochemical; settings: imipenem reporter substrate; 37° C.; read-out: Ki (NDM-1, IMI)
Experimental: Purified enzymes were mixed with various concentrations of inhibitors in reaction buffer and incubated for 10 min at room temperature. Imipenem was added and substrate cleavage profiles were recorded at 294 nm every 30 seconds for 30 minutes at 37° C.

IMP-1 = IMP-1 (Serratia marcescens, UniProt P52699); experiment: Inhibition of imipenem cleavage by purified IMP-1; type: biochemical; settings: imipenem reporter substrate; 37° C.; read-out: Ki (IMP-1, IMI)
Experimental: Ki values of inhibition of purified class B enzymes NDM-1 and IMP-1 were determined spectrophotometrically using imipenem as reporter substrate. Purified enzymes were mixed with various concentrations of inhibitors in reaction buffer and incubated for 10 min at room temperature. Imipenem was added and substrate cleavage profiles were recorded at 294 nm every 30 seconds for 30 minutes at 37° C. These experiments further confirmed that the described compounds have the ability to inhibit carbapenemase activity of metallo-beta-lactamases.

[1] = test system: PAM1032/KPC-2 (overexpressed MexAB-OprM); experiment: Biapenem potentiation (MPC64) in PAM1032/KPC-2; type: cell-based, Pseudomonas aeruginosa; set-up: PAM1032/KPC-2 Biapenem MPC64: unit not given here; settings: BLI potency to decrease biapenem MIC 64-fold, from 32 to 0.5 μg/ml; efflux proficient strain
Experimental: (§2) Efflux of BLIs from Pseudomonas aeruginosa by the MexAB-OprM efflux pump was also evaluated. The plasmid expressing the gene encoding KPC-2 was introduced into two strains of P. aeruginosa, PAM1032 and PAM1154 that overexpressed or lacked MexAB-OprM, respectively. Due to expression of KPC-2 both strains became resistant to biapenem. […] Potency of BLIs to potentiate biapenem in these strains was determined. […] The ratio of MPC64 values for each BLI in PAM1032/KPC-2 (efflux proficient) and PAM1154/KPC-2 (efflux deficient) was determined to generate the Efflux Index (EI) as shown in Table 8.

[2] = test system: PAM1154/KPC-2 (lacked MexAB-OprM); experiment: Biapenem potentiation (MPC64) in PAM1154/KPC-2; type: cell-based, Pseudomonas aeruginosa; set-up: PAM1154/KPC-2 Biapenem MPC64: unit not given here; settings: BLI potency to decrease biapenem MIC 64-fold, from 32 to 0.5 μg/ml; efflux deficient strain
Experimental: as §2

Sequence of KPC-2 (Q9F663 25-293 limits assumed): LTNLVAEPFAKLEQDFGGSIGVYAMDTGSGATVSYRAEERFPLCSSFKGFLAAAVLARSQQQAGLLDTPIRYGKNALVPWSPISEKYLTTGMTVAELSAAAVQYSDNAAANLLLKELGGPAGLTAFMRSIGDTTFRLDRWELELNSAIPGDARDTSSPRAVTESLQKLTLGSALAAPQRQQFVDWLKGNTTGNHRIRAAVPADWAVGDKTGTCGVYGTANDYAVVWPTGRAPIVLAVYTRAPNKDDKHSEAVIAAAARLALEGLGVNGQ
Sequence of NDM-1 (C7C422 29-270, looked up, species assumed): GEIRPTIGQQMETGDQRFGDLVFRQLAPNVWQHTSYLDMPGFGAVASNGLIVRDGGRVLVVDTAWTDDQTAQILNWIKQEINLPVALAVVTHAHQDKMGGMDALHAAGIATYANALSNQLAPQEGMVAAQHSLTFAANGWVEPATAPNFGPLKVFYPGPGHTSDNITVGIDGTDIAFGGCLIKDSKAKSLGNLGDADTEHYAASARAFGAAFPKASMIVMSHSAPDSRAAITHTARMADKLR
Sequence of OXA-23 (Q9L4P2 18-273): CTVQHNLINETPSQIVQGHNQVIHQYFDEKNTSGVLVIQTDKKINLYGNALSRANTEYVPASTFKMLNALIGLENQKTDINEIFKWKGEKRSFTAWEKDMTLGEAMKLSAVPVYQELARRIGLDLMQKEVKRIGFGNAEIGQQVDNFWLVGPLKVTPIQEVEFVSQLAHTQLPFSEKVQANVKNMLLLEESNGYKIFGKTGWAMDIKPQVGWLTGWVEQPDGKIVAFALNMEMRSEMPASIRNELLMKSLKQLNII
Sequence of OXA-48 (Q6XEC0 23-265, looked up): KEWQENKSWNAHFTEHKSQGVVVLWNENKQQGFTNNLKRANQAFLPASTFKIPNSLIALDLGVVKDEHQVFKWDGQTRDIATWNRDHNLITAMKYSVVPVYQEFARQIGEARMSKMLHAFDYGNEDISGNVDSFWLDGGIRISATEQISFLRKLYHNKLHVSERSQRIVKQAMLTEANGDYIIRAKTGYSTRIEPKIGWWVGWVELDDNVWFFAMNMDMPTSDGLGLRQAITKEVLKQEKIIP
Sequence of Pa-AmpC (P24735 27-397): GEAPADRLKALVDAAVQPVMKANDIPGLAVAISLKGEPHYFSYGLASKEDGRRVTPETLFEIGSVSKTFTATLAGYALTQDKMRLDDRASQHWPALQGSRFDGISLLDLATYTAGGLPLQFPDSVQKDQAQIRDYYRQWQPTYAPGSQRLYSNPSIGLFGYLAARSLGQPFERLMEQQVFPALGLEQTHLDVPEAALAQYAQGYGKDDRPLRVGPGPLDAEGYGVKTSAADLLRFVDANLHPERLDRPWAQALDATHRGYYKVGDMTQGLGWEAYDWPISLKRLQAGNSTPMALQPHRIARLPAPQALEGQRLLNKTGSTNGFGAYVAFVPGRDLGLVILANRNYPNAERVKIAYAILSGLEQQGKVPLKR
Sequence of IMP-1 (P52699 19-246, looked up, species assumed): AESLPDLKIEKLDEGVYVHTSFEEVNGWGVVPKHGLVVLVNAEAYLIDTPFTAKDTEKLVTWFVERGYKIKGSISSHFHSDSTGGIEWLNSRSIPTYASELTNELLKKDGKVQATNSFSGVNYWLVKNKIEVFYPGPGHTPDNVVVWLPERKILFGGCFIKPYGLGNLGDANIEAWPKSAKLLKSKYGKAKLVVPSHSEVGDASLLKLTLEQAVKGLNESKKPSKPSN
Sequence of CTX-M-14 (Q9L5C7 29-291, species assumed): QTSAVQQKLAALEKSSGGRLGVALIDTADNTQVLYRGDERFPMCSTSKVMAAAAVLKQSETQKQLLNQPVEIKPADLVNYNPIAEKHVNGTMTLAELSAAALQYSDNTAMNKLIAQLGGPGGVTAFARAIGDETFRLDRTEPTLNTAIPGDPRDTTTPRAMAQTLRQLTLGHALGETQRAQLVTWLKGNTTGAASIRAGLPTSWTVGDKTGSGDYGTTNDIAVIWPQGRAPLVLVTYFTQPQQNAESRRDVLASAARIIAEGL
Sequence of P99 (P05364 21-381): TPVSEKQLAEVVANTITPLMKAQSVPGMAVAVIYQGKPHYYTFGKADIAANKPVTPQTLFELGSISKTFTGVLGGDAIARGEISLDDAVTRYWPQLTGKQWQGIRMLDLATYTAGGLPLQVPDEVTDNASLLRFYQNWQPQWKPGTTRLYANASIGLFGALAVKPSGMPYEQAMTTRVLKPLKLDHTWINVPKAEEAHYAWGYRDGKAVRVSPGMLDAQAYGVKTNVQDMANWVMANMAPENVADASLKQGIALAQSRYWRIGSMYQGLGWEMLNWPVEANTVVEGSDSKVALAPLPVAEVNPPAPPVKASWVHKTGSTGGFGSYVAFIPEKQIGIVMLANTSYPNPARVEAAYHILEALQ

SMILES | Ki (CTX-M-14) | Ki (KPC-2) | Ki (P99) | Ki (Pa-AmpC) | Ki (OXA-48) | Ki (OXA-23) | Ki (VIM-1) | Ki (NDM-1) | Ki (IMP-1) | PAM1032/KPC-2 Biapenem MPC64 [1] | PAM1154/KPC-2 Biapenem MPC64 [2]
O=C(O)c1c(OCCF)ccc2c1OB(O)C1CC21 (stereo not shown) [Compound 17, 5-(2-fluoroethoxy)-2,2-dihydroxy-1a,7b-dihydro-1H-cyclopropa[c][1,2]benzoxaborinine-4-carboxylic acid] | < 100 nM | < 100 nM | < 100 nM | < 100 nM | < 100 nM | < 100 nM | < 100 nM | < 100 nM | < 100 nM | 20 | 5
O=C(O)c1c(F)c(F)cc2c1OB(O)C1CC21 (stereo not shown) [Compound 19, 5,6-difluoro-2,2-dihydroxy-1a,7b-dihydro-1H-cyclopropa[c][1,2]benzoxaborinine-4-carboxylic acid] | < 100 nM | < 100 nM | < 100 nM | < 100 nM | < 100 nM | < 100 nM | < 100 nM | 100 to 1000 nM | > 1000 nM | 5 | 1.25
O=C(O)c1c(F)ccc2c1OB(O)CC21CC1 [Compound 15, 8-fluoro-4,4-dihydroxy-spiro[5-oxa-4-boranuidabicyclo[4.4.0]deca-1(6),7,9-triene-2,1′-cyclopropane]-7-carboxylic acid] | < 100 nM | < 100 nM | < 100 nM | < 100 nM | < 100 nM | < 100 nM | > 1000 nM | 100 to 1000 nM | > 1000 nM | 5 | 1.25
O=C(O)c1cccc2c1OB(O)[C@@H]1C[C@H]21 [Compound 16, (1aR,7bS)-2,2-dihydroxy-1a,7b-dihydro-1H-cyclopropa[c][1,2]benzoxaborinine-4-carboxylic acid] | < 100 nM | < 100 nM | < 100 nM | < 100 nM | < 100 nM | < 100 nM | < 100 nM | < 100 nM | < 100 nM | 1.25 | 0.3
O=C(O)c1cccc2c1OB(O)CC21CC1 [Compound 14, 4,4-dihydroxyspiro[5-oxa-4-boranuidabicyclo[4.4.0]deca-1(6),7,9-triene-2,1′-cyclopropane]-7-carboxylic acid] | < 100 nM | < 100 nM | < 100 nM | < 100 nM | < 100 nM | < 100 nM | > 1000 nM | < 100 nM | > 1000 nM | 40 | 1.25
O=C(O)c1cccc2c1OB(O)[C@H]1C[C@@H]21 [Compound 18, (1aS,7bR)-2,2-dihydroxy-1a,7b-dihydro-1H-cyclopropa[c][1,2]benzoxaborinine-4-carboxylic acid] | < 100 nM | < 100 nM | 100 to 1000 nM | 100 to 1000 nM | < 100 nM | 100 to 1000 nM | 100 to 1000 nM | < 100 nM | > 1000 nM | 5 | 0.3
COc1ccc2c(c1C(=O)O)OB(O)[C@@H]1COC[C@H]21 [Compound 23, (3aS,9bS)-4,4-dihydroxy-7-methoxy-1,3,3a,9b-tetrahydrofuro[3,4-c][1,2]benzoxaborinine-6-carboxylic acid] | < 100 nM | < 100 nM | < 100 nM | 100 to 1000 nM | < 100 nM | < 100 nM | 100 to 1000 nM | < 100 nM | > 1000 nM | 20 | 20
COc1ccc2c(c1C(=O)O)OB(O)C1C2C1(F)F (stereo not shown) [Compound 5, 1,1-Difluoro-2-hydroxy-5-methoxy-1a,7b-dihydrocyclopropa[c][1,2]benzoxaborinine-4-carboxylic acid] | < 100 nM | < 100 nM | 100 to 1000 nM | > 1000 nM | < 100 nM | < 100 nM | > 1000 nM | 100 to 1000 nM | > 1000 nM | 20 | 10
COc1ccc2c(c1C(=O)O)OB(O)C1CC21 (stereo not shown) [Compound 1, 2-Hydroxy-5-methoxy-1a,7b-dihydro-1H-cyclopropa[c][1,2]benzoxaborinine-4-carboxylic acid] | < 100 nM | < 100 nM | < 100 nM | < 100 nM | < 100 nM | < 100 nM | < 100 nM | < 100 nM | < 100 nM | 2.5 | 1.25
COc1ccc2c(c1C(=O)O)OB(O)C1(CO)CC21 (stereo not shown) [Compound 22, 2,2-dihydroxy-1a-(hydroxymethyl)-5-methoxy-1,7b-dihydrocyclopropa[c][1,2]benzoxaborinine-4-carboxylic acid] | < 100 nM | < 100 nM | < 100 nM | < 100 nM | < 100 nM | > 1000 nM | < 100 nM | < 100 nM | < 100 nM | 20 | 10
COc1ccc2c(c1C(=O)O)OB(O)[C@H]1C[C@@H]21 [Compound 2, (1aS,7bR)-2-hydroxy-5-methoxy-1a,7b-dihydro-1H-cyclopropa[c][1,2]benzoxaborinine-4-carboxylic acid] | < 100 nM | < 100 nM | < 100 nM | < 100 nM | < 100 nM | < 100 nM | 100 to 1000 nM | 100 to 1000 nM | > 1000 nM | 2.5 | 1.25
